{"source": "paper PMC4386669", "about": "(Cell reports, 2014)", "key": {"[1]": {"system": "ES-8 EWS cells", "test": "Single-cell alkali gel electrophoresis", "format": "cell-based", "settings": "after 12 hours of exposure to the PARPi"}, "[2]": {"system": "Ewing sarcoma cell lines", "test": "Dose-response cytotoxicity in Ewing sarcoma cell lines", "format": "cell-based"}, "[3]": {"system": "ES-6 cells", "test": "Dose-response cytotoxicity in ES-6 cells", "format": "cell-based", "settings": "for Sensitivity (cytotoxicity): 144 hours"}, "[4]": {"test": "Plasma and tumor pharmacokinetics in mice with orthotopic xenografts", "format": "in vivo, CD1-nude mice", "settings": "for concentration at 12 h: CD1-nude, mouse, orthotopic xenograft tumor, po; for Murine equivalent dose (most appropriate dose for twice-daily oral administration in mice): from plasma AUC in mice compared with plasma PK data in patients"}, "[5]": {"settings": "ref Morton et al., 2005, 2000; cited from earlier work"}, "[6]": {"system": "SAOS2", "test": "Dose-response cytotoxicity in SAOS2", "format": "cell-based"}, "[7]": {"system": "EWS cell lines", "test": "Drug-pair cytotoxicity with response surface model"}, "[8]": {"settings": "TMZ to 10 mg/kg in mice; BMN-673 to 0.1 mg/kg (of the MED)"}, "[9]": {"system": "ES-6 cells", "settings": "later timepoints, ref Garnett et al., 2012; cited from earlier work"}, "[10]": {"system": "Ewing sarcoma cell lines", "settings": "ref Brenner et al., 2012, Garnett et al.; cited from earlier work"}, "[11]": {"system": "ES-6 cells", "settings": "72 hours, ref Garnett et al., 2012; cited from earlier work"}, "[12]": {"biological_target": "PARP1 (Homo sapiens, UniProt P09874)", "sequence (P09874 whole entry)": "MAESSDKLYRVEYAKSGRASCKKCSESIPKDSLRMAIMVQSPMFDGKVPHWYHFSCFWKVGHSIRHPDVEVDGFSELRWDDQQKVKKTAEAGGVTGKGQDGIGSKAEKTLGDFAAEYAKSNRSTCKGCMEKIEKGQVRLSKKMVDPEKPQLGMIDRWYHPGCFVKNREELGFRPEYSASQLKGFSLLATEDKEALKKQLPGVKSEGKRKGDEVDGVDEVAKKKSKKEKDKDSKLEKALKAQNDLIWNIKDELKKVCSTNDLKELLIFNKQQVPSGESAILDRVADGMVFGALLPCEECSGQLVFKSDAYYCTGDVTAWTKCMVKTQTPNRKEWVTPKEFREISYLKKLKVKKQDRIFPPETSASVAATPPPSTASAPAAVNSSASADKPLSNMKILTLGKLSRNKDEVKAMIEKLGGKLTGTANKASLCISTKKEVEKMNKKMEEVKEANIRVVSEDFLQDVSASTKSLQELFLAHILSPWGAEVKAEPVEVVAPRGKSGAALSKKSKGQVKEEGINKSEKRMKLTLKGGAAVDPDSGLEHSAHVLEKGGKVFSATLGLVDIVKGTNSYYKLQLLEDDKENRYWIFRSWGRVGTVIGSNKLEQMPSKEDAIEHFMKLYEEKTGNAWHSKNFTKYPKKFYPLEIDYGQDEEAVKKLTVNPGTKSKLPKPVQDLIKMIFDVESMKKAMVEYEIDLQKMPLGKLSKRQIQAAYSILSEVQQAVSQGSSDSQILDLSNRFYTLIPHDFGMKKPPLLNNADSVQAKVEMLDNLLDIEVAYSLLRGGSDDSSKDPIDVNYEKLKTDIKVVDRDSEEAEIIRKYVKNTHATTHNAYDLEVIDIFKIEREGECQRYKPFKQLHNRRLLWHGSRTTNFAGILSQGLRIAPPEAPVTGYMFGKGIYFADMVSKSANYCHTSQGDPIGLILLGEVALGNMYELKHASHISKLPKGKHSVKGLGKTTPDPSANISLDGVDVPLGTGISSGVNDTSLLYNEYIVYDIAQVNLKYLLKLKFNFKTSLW", "settings": "10 micromolar PARPi + 0.01% MMS"}, "[13]": {"settings": "EW-8, ES-8, and ES-1 cells, 72 hours of exposure"}, "[14]": {"settings": "translocation-positive EWS cell lines, RSM"}}, "note": "pEC50: −log10 of the molar value. Read-outs that look alike come from different tables or passages of the source."}
{"molecule": "Cn1ncnc1[C@H]1c2n[nH]c(=O)c3cc(F)cc(c23)N[C@@H]1c1ccc(F)cc1", "note": "[BMN-673]", "values": [{"measurement": "Basal level of DNA damage (comet tail moment)", "setting": "[1]; 1 or 10 μM", "value": "elevated"}, {"measurement": "Sensitivity (cytotoxicity)", "setting": "[2]; [13]", "value": "sensitive"}, {"measurement": "Sensitivity (cytotoxicity)", "setting": "[3]", "value": "resistant"}, {"measurement": "concentration at 12 h", "setting": "[4]", "value": "≥ 15", "unit": "nM"}, {"measurement": "Murine equivalent dose (most appropriate dose for twice-daily oral administration in mice)", "setting": "[4]", "value": 0.125, "unit": "mg/kg"}]}
{"molecule": "CCc1c2c(nc3ccc(O)cc13)-c1cc3c(c(=O)n1C2)COC(=O)[C@]3(O)CC", "note": "[SN-38]", "values": [{"measurement": "pEC50", "setting": "[2]; 144 hours, all EWS cell lines tested excluding ES-6", "value": "> 8.00"}, {"measurement": "Cmax and AUC of SN-38 in mouse plasma versus human plasma", "setting": "[5]", "value": "slightly higher"}, {"measurement": "Potency compared to other EWS cell lines", "setting": "[3]", "value": "significantly lower potency"}, {"measurement": "pEC50", "setting": "[6]", "value": "> 7.00"}, {"measurement": "Concentration at which PARPi is significantly potentiated", "setting": "[7]; [14]", "value": "1 to 10", "unit": "nM"}]}
{"molecule": "Cn1nnc2c(C(N)=O)ncn2c1=O", "note": "[TMZ, temozolomide]", "values": [{"measurement": "Dose reduction needed to make the BMN-673 + TMZ combination tolerable", "setting": "[8]", "value": 70, "unit": "%"}, {"measurement": "pEC50", "setting": "[2]; 144 h", "value": "< 4.00"}, {"measurement": "Fold higher concentration of TMZ required for the same level of potentiation as IRN", "setting": "[7]; potentiation of PARPi-mediated killing of EWS cells", "value": "≥ 1,000 fold"}, {"measurement": "Concentration required for the same level of PARPi potentiation", "setting": "[7]; [14]", "value": "10 to 100", "unit": "µM"}]}
{"molecule": "O=C(c1cc(Cc2n[nH]c(=O)c3ccccc23)ccc1F)N1CCN(C(=O)C2CC2)CC1", "note": "[olaparib]", "values": [{"measurement": "Basal level of DNA damage (comet tail moment)", "setting": "[1]; 10 μM", "value": "elevated"}, {"measurement": "Sensitivity (cytotoxicity)", "setting": "[2]; [13]", "value": "sensitive"}, {"measurement": "Sensitivity in colony assays", "setting": "[9]", "value": "some sensitivity"}, {"measurement": "Potency compared to other EWS cell lines", "setting": "[3]", "value": "significantly lower potency"}, {"measurement": "concentration at 12 h", "setting": "[4]", "value": "≥ 90", "unit": "nM"}, {"measurement": "Murine equivalent dose (most appropriate dose for twice-daily oral administration in mice)", "setting": "[4]", "value": 50, "unit": "mg/kg"}, {"measurement": "Sensitivity of EWS cell lines", "setting": "[10]", "value": "sensitive"}, {"measurement": "Sensitivity (cytotoxicity)", "setting": "[11]", "value": "resistant"}]}
{"molecule": "C[C@]1(c2nc3c(C(N)=O)cccc3[nH]2)CCCN1", "note": "[veliparib]", "values": [{"measurement": "Sensitivity (cytotoxicity)", "setting": "[2]; all EWS cell lines except ES-6, 144 hours", "value": "marginal"}, {"measurement": "Sensitivity (cytotoxicity)", "setting": "[3]", "value": "resistant"}, {"measurement": "concentration at 12 h", "setting": "[4]", "value": "≥ 50", "unit": "nM"}, {"measurement": "Murine equivalent dose (most appropriate dose for twice-daily oral administration in mice)", "setting": "[4]", "value": 12.5, "unit": "mg/kg"}, {"measurement": "PARP trapping potential (rank order)", "setting": "[12]", "value": "BMN-673 > olaparib > veliparib"}]}
